In one assay the target is T1, EP1 receptors (Homo sapiens, UniProt P34995).
T1 sequence (P34995 1-402): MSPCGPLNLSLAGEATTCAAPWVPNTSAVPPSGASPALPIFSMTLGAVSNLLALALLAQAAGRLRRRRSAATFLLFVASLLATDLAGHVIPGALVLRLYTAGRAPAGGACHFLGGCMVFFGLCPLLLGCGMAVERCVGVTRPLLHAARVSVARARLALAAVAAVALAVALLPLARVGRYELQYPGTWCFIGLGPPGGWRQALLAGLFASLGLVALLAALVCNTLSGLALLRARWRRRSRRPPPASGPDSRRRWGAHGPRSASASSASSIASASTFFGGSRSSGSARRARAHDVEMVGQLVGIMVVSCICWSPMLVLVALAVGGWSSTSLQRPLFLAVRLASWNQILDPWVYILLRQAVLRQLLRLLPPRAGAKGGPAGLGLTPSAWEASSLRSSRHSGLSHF
The experiment in a line: human EP1 calcium mobilisation assay (CHO-K1 cells, PGE2, FLIPR). It is filed as cell-based. The conditions noted are these: free bases or sodium salts; averages of a number of experiments; read-out: functional pKi value, human EP1 calcium mobilisation assay (converted). Set-up: expressed in transfected cells; host or cells: CHO-K1. Here is the method:
(§1) Briefly, the antagonist properties of compounds are assessed by their ability to inhibit the mobilisation of intracellular calcium ([Ca^2+]i) in response to activation of EP1 or EP3 receptors by the natural agonist hormone prostaglandin E2 (PGE2). Increasing concentrations of antagonist reduce the amount of calcium that a given concentration of PGE2 can mobilise. The net effect is to displace the PGE2 concentration-effect curve to higher concentrations of PGE2. The amount of calcium produced is assessed using a calcium-sensitive fluorescent dye such as Fluo-4, AM and a suitable instrument such as a Fluorimetric Imaging Plate Reader (FLIPR). Increasing amounts of [Ca^2+]i produced by receptor activation increase the amount of fluorescence produced by the dye and give rise to an increasing signal. The signal may be detected using the FLIPR instrument and the data generated may be analysed with suitable curve-fitting software.
(§2) The human EP1 or EP3 calcium mobilisation assay (hereafter referred to as ‘the calcium assay’) utilises Chinese hamster ovary-K1 (CHO-K1) cells into which a stable (pCIN; BioTechniques 20 (1996): 102-110) vector containing either EP1 or EP3 cDNA has previously been transfected. Cells are cultured in suitable flasks containing culture medium such as DMEM:F-12 supplemented with 10% v/v foetal calf serum, 2 mM L-glutamine, 0.25 mg/ml geneticin, 100 μM flurbiprofen and 10 µg/ml puromycin.
(§3) For assay, cells are harvested using a proprietary reagent that dislodges cells such as Versene. Cells are re-suspended in a suitable quantity of fresh culture media for introduction into a 384-well plate. Following incubation for 24 hours at 37° C. the culture media is replaced with a medium containing Fluo-4 and the detergent pluronic acid, and a further incubation takes place. Concentrations of compounds are then added to the plate in order to construct concentration-effect curves. This may be performed on the FLIPR in order to assess the agonist properties of the compounds. Concentrations of PGE2 are then added to the plate in order to assess the antagonist properties of the compounds.
(§4) The data so generated may be analysed by means of a computerised curve-fitting routine. The concentration of compound that elicits a half-maximal inhibition of the calcium mobilisation induced by PGE2 (pIC50) may then be estimated.

In the next assay the target is T2, EP3 receptors (Homo sapiens, UniProt P43115).
T2 construct: expressed in transfected cells; host or cells: CHO-K1
T2 sequence (P43115 1-390): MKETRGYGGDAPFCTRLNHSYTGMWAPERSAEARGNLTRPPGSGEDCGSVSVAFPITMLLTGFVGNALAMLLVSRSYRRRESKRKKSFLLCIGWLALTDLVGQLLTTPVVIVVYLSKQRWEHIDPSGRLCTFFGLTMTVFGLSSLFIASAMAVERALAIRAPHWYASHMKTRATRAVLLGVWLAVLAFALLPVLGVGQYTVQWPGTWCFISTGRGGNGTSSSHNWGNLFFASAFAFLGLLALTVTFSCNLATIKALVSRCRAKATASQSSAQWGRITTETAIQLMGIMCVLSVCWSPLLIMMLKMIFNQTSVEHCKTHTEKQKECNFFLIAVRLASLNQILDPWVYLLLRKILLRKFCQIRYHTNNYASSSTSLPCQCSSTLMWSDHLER
The assay can be described thus: human EP3 calcium mobilisation assay (CHO-K1 cells, PGE2, FLIPR). It is filed as cell-based. The conditions noted are these: free bases or sodium salts; averages of a number of experiments; read-out: functional pKi value, human EP3 calcium mobilisation assay (converted). Here is the method: as §1, §2, §3, §4
(A change in cytosolic calcium serves as a functional read-out for many receptors and channels.)

Where a name gives a salt, the structure may show the parent alone.

Results on 14 compounds are retold here after patent publication US7759369B2, “Pyridine compounds for the treatment of prostaglandin mediated diseases” (Glaxo Group Limited, priority 2004, dated 2010).

`O=C(O)c1cccc(Cc2cc(Cl)ccc2OCc2ccc(Cl)cc2F)n1` [Example 3, Sodium 6-[(5-chloro-2-{[(4-chloro-2-fluorophenyl)methyl]oxy}phenyl)methyl]-2-pyridinecarboxylate]: at EP1 receptors, the Ki was no more than 0.0316 µM.

Turning to `O=C(O)c1cccc(Cc2cc(Cl)ccc2OCc2ccc(F)cc2F)n1` [Example 4, Sodium 6-[(5-chloro-2-{[(2,4-difluorophenyl)methyl]oxy}phenyl)methyl]-2-pyridinecarboxylate], the Ki on EP3 receptors was greater than 10 µM; on EP1 receptors it was no more than 0.0316 µM.

As for `O=C(O)c1cccc(Cc2cc(Cl)ccc2OCc2cc(F)c(F)cc2F)n1` [Example 10, Sodium 6-[(5-chloro-2-{[(2,4,5-trifluorophenyl)methyl]oxy}phenyl)methyl]-2-pyridinecarboxylate], the Ki on EP3 receptors was greater than 10 µM; on EP1 receptors, less than 1 µM.

As for `O=C(O)c1cccc(Cc2cc(Cl)ccc2OCc2ccc(F)cc2Cl)n1` [Example 11, Sodium 6-[(5-chloro-2-{[(2-chloro-4-fluorophenyl)methyl]oxy}phenyl)methyl]-2-pyridinecarboxylate], the Ki is greater than 10 µM at EP3 receptors and less than 1 µM on EP1 receptors.

As to `O=C(O)c1cccc(Cc2cc(Cl)ccc2OCc2ccc(Cl)cc2Cl)n1` [Example 12, Sodium 6-[(5-chloro-2-{[(2,4-dichlororophenyl)methyl]oxy}phenyl)methyl]-2-pyridinecarboxylate], at EP1 receptors, the Ki was no more than 0.0316 µM.

For the compound `O=C(O)c1cccc(Cc2cc(Cl)ccc2OCC2CCCC2)n1` [Example 14, Sodium 6-({5-chloro-2-[(cyclopentylmethyl)oxy]phenyl}methyl)-2-pyridinecarboxylate], the Ki on EP1 receptors is less than 1 µM.

Consider `O=C(NS(=O)(=O)c1ccccc1)c1cccc(Cc2cc(Cl)ccc2OCc2ccc(Cl)cc2F)n1` [Example 28, 6-[(5-chloro-2-{[(4-chloro-2-fluorophenyl)methyl]oxy}phenyl)-methyl]-N-(phenylsulphonyl)-2-pyridinecarboxamide], for which the Ki on EP3 receptors was greater than 10 µM; at EP1 receptors it was no more than 0.0316 µM.

For `CS(=O)(=O)NC(=O)c1cccc(Cc2cc(Cl)ccc2OCc2ccc(Cl)cc2F)n1` [Example 29, 6-[(5-Chloro-2-{[(4-chloro-2-fluorophenyl)methyl]oxy}-phenyl)methyl]-N-(methylsulphonyl)-2-pyridinecarboxamide], the Ki was greater than 10 µM on EP3 receptors and no more than 0.0316 µM at EP1 receptors.

For the compound `CCCS(=O)(=O)NC(=O)c1cccc(Cc2cc(Cl)ccc2OCc2ccc(Cl)cc2F)n1` [Example 30, 6-[(5-Chloro-2-{[(4-chloro-2-fluorophenyl)methyl]oxy}-phenyl)methyl]-N-(propylsulphonyl)-2-pyridinecarboxamide], the values for the Ki at EP3 receptors and at EP1 receptors were greater than 10 µM and no more than 0.0316 µM, respectively.

On to `O=C(NS(=O)(=O)c1ccc(Br)cc1)c1cccc(Cc2cc(Cl)ccc2OCc2ccc(Cl)cc2F)n1` [Example 33, N-[(4-Bromophenyl)sulphonyl]-6-[(5-chloro-2-{[(4-chloro-2-fluorophenyl)methyl]oxy}phenyl)-methyl]-2-pyridinecarboxamide], for which the Ki on EP1 receptors was less than 1 µM.

As for `O=C(NS(=O)(=O)c1cccc(Br)c1)c1cccc(Cc2cc(Cl)ccc2OCc2ccc(Cl)cc2F)n1` [Example 34, N-[(3-Bromophenyl)sulphonyl]-6-[(5-chloro-2-{[(4-chloro-2-fluorophenyl)methyl]oxy}phenyl)-methyl]-2-pyridinecarboxamide], the Ki at EP1 receptors is no more than 0.0316 µM.

As for `Cc1noc(C)c1S(=O)(=O)NC(=O)c1cccc(Cc2cc(Cl)ccc2OCc2ccc(Cl)cc2F)n1` [Example 36, 6-[(5-Chloro-2-{[(4-chloro-2-fluorophenyl)methyl]oxy}-phenyl)methyl]-N-[(3,5-dimethyl-4-isoxazolyl)sulphonyl]-2-pyridinecarboxamide], the Ki at EP3 receptors is greater than 10 µM; at EP1 receptors, no more than 0.0316 µM.

For the compound `Fc1cc(Cl)ccc1COc1ccc(Cl)cc1Cc1cccc(-c2nnn[nH]2)n1` [Example 38, 2-[(5-Chloro-2-{[(4-chloro-2-fluorophenyl)methyl]oxy}phenyl)-methyl]-6-(1H-tetrazol-5-yl)pyridine], at EP1 receptors, the Ki is no more than 0.0316 µM.

As to `Cc1ccc(C(=O)O)nc1Cc1cc(Cl)ccc1OCc1ccc(Cl)cc1F` [Example 39, 6-[(5-Chloro-2-{[(4-chloro-2-fluorophenyl)methyl]oxy}-phenyl)methyl]-5-methyl-2-pyridinecarboxylic acid, sodium salt], the Ki at EP1 receptors was less than 1 µM.
